Measured values taken from patent US5521155A, “Amides of teicoplanin compounds” (Gruppo Lepetit S.p.A, priority 1985, dated 1996).
Converted amounts (≈) assume the structure as drawn.

Key:
[1] = Isoelectric point (pI) by isoelectrofocusing with bioautography detection; format: physicochemical; conditions: IEF technique, polyacrylamide gel
Source text: The isoelectrofocusing (IEF) technique coupled with bioautography detection has been used for the determination of the pI of representative compounds of the invention using the following materials: AMPHOLINE carrier ampholytes (40% w/v) were purchased from LKB Produketer AB, Bromma, Sweden. Acrylamide, N,N'-methylenbisacrylamide (BIS), N,N,N',N'-tetramethylethylenediamine (TEMED) and ammonium persulfate were from Bio Rad Laboratorie, Richmond, Calif., USA. Glycerol and Antibiotic agar N. 1 (Grove and Randall medium N. 1) were from E. Merck Darmstadt FRG. GEL FIX polyester sheets were purchased from Serva Feinbiochemica Heidelberg. Phenolindo (2,6-dichlorophenol) came from BDH Chemicals Ltd. Poole, England.
IEF was made on gel slab using a LKB MULITPHOR 2117 cell and a Bio-Rad Power Supply Model 1420A. Slabs of 24.5×11.5 cm and 1 mm thickness were prepared on a sheet of GEL FIX. Polyacrylamide gels with a concentration of 8% T and with a cross-linkage of 4% C (30% T stock solution was prepared by dissolving 28.8 g of acrylamide and 1.2 g of bis-acrylamide in 100 ml distilled water), glycerol, 3.5% v/v, 2% AMPHOLINE, 0.05% ammonium persulphate as catalyst and 0.05% TEMED as accelerator. The carrier ampholite composition for 35 ml gelling solution was as follows:
The electrode solutions, as recommended by LKB for the respective pH range, were:
The gel was cooled to 4° C. with the aid of a LKB 2209 refrigerated constant temperature circulator. After prefocusing for 30 min. at 5 W, the samples (20 μl containing 0.2 to 2.5 μg of antibiotic) were loaded into the slot at the cathodic side. Electrofocusing was performed using 10 W constant power and was completed after 3-31/2 hours with a final potential of 1400 V.
The pH values were determined by dividing a portion of the gel into 1 cm sections, and eluting the individual pieces at room temperature with 1 ml of 10 mM KCl prior to pH readings.
The isoelectric point of each antibiotic was determined by interpolation on a curve obtained by plotting pH values versus the distance from the anode.
Polyacrylamide gel was placed on a 3 mm layer of agar medium N. 1 inoculated with 1% of Bacillus subtilis ATCC 6633 spore (0.5 OD at 600 nm). After 10 min the gel was removed and the plate was incubated overnight at 37° C. and examined for inhibition zones. The contrast between the area of lysis and that of bacterial growth was enhanced by use of Phenolindo(2,6-dichlorophenol) 1% w/v (oxidation-reduction indicator).

[2] = test system: E. coli SKF 12140; experiment: In vitro antibacterial activity, standard agar-dilution test (MIC); format: cell-based; conditions: inoculum about 10^4 CFU/ml, 18-24 h at 37° C.
Method: (§1) The culture medium ISOSENSITEST BROTH (Oxoid) and the colture medium TODD-[…] BROTH (Difco) are used for growing staphylococci and streptococci, respectively. Broth cultures are diluted so that the final inoculum is about 10^4 colony forming units/ml (CFU/ml).

[3] = test system: Proteus vulgaris X 19H ATCC 881; experiment: as above; format: cell-based; conditions: inoculum about 10^4 CFU/ml, 18-24 h at 37° C.
Method: as §1

[4] = test system: Pseudomonas aeruginosa ATCC 10145; experiment: as above; format: cell-based; conditions: inoculum about 10^4 CFU/ml, 18-24 h at 37° C.
Method: as §1

[5] = test system: S. aureus ATCC 6538; experiment: as above; format: cell-based; conditions: inoculum about 10^4 CFU/ml, 18-24 h at 37° C.
Method: as §1

[6] = test system: S. aureus Tour; experiment: as above; format: cell-based; conditions: inoculum about 10^4 CFU/ml, 18-24 h at 37° C.
Method: as §1

[7] = test system: S. epidermidis ATCC 12228; experiment: as above; format: cell-based; conditions: inoculum about 10^4 CFU/ml, 18-24 h at 37° C.
Method: as §1

[8] = test system: S. faecalis ATCC 7080; experiment: as above; format: cell-based; conditions: inoculum about 10^4 CFU/ml, 18-24 h at 37° C.
Method: as §1

[9] = test system: S. pneumoniae UC 41; experiment: as above; format: cell-based; conditions: inoculum about 10^4 CFU/ml, 18-24 h at 37° C.
Method: as §1

[10] = test system: S. pyogenes C 203; experiment: as above; format: cell-based; conditions: inoculum about 10^4 CFU/ml, 18-24 h at 37° C.
Method: as §1

[11] = test system: S. pyogenes L 49; experiment: In vivo test in mice experimentally infected with S. pyogenes L 49 (ED50); conditions: mice infected with S. pyogenes L 49; for ED50, route of administration os.: oral
[12] = Acid-base titration (pK); format: physicochemical; conditions: for pK1 / pK2: acid-base titration in METHYLCELLOSOLVE/H2O 4:1 (v/v), 0.01N KOH, salt form per Table IV
Method: The following table (Table IV) reports the acid-base titration data of some representative compounds of the invention. The assays were carried out in METHYLCELLOSOLVE/H2 O, 4:1(v/v). A sample is dissolved in METHYLCELLOSOLVE/H2 O, 4:1(v/v) (10 umole in about 20 ml) and then 0.01N HCl (2 ml) is added and the mixture is titrated with 0.01N KOH in the same solvent mixture.

| SMILES | Isoelectric point (pI) [1] | MIC E. coli SKF 12140 [2] [µg/mL] | MIC Proteus vulgaris X 19H ATCC 881 [3] [µg/mL] | MIC Pseudomonas aeruginosa ATCC 10145 [4] [µg/mL] | MIC S. aureus ATCC 6538 [5] [µg/mL] | MIC S. aureus Tour [6] [µg/mL] | MIC S. epidermidis ATCC 12228 [7] [µg/mL] | MIC S. faecalis ATCC 7080 [8] [µg/mL] | MIC S. pneumoniae UC 41 [9] [µg/mL] | MIC S. pyogenes C 203 [10] [µg/mL] | ED50, route of administration os. [11] [mg/kg] | ED50, route of administration s.c [11] [mg/kg] | pK1 [12] | pK2 [12] | pK3 (value between brackets) ([12]; between brackets: due to titration of the carboxylic function of the salifying acid) |
| --- | --- | --- | --- | --- | --- | --- | --- | --- | --- | --- | --- | --- | --- | --- | --- |
| CC(=O)NC1C(OC2c3ccc(c(Cl)c3)Oc3cc4cc(c3O)Oc3ccc(cc3Cl)CC3NC(=O)C(N)c5ccc(O)c(c5)Oc5cc(O)cc(c5)C(NC3=O)C(=O)NC4C(=O)NC3C(=O)NC2C(=O)NC(C(=O)NCCCN(C)C)c2cc(O)cc(O)c2-c2cc3ccc2O)OC(CO)C(O)C1O (stereo not drawn) [Compound 13] | 8.9 | 64 (≈ 43.1 µM) | > 128 | > 128 | 0.12 (≈ 0.0807 µM) | 0.12 (≈ 0.0807 µM) | 0.06 (≈ 0.0404 µM) | 0.25 (≈ 0.168 µM) | 0.25 (≈ 0.168 µM) | 0.12 (≈ 0.0807 µM) | > 300 | 2.2 | – | – | – |
| CCOC(=O)CNC(=O)C1NC(=O)C2NC(=O)C(NC(=O)C3NC(=O)C4NC(=O)C(Cc5ccc(c(Cl)c5)Oc5cc3cc(c5O)Oc3ccc(cc3Cl)C2OC2OC(CO)C(O)C(O)C2NC(C)=O)NC(=O)C(N)c2ccc(O)c(c2)Oc2cc(O)cc4c2)c2ccc(O)c(c2)-c2c(O)cc(O)cc21 (stereo not drawn) [Compound 16] | 7.8 | 128 (≈ 86.1 µM) | > 128 | > 128 | 0.5 (≈ 0.336 µM) | 1 (≈ 0.672 µM) | 0.12 (≈ 0.0807 µM) | 1 (≈ 0.672 µM) | 1 (≈ 0.672 µM) | 0.25 (≈ 0.168 µM) | > 300 | 5 | – | – | – |
| CN(C)CCCNC(=O)C1NC(=O)C2NC(=O)C(NC(=O)C3NC(=O)C4NC(=O)C(Cc5ccc(c(Cl)c5)Oc5cc3cc(c5O)Oc3ccc(cc3Cl)C2O)NC(=O)C(N)c2ccc(O)c(c2)Oc2cc(O)cc4c2)c2ccc(O)c(c2)-c2c(O)cc(O)cc21 (stereo not drawn) [Compound 18] | 8.9 | 8 (≈ 6.23 µM) | 16 (≈ 12.5 µM) | 32 (≈ 24.9 µM) | 0.06 (≈ 0.0468 µM) | 0.12 (≈ 0.0935 µM) | 0.016 (≈ 0.0125 µM) | 0.12 (≈ 0.0935 µM) | 0.12 (≈ 0.0935 µM) | 0.06 (≈ 0.0468 µM) | 140 | 0.31 | – | – | – |
| CCN(CC)CCCNC(=O)C1NC(=O)C2NC(=O)C(NC(=O)C3NC(=O)C4NC(=O)C(Cc5ccc(c(Cl)c5)Oc5cc3cc(c5O)Oc3ccc(cc3Cl)C2O)NC(=O)C(N)c2ccc(O)c(c2)Oc2cc(O)cc4c2)c2ccc(O)c(c2)-c2c(O)cc(O)cc21 (stereo not drawn) [Compound 19] | 8.7 | 8 (≈ 6.1 µM) | 32 (≈ 24.4 µM) | 32 (≈ 24.4 µM) | 0.12 (≈ 0.0915 µM) | 0.12 (≈ 0.0915 µM) | 0.032 (≈ 0.0244 µM) | 0.12 (≈ 0.0915 µM) | 0.12 (≈ 0.0915 µM) | 0.06 (≈ 0.0458 µM) | > 300 | 0.18 | 6.30 | 8.0 | – |
| CCCCN(CCCC)CCCNC(=O)C1NC(=O)C2NC(=O)C(NC(=O)C3NC(=O)C4NC(=O)C(Cc5ccc(c(Cl)c5)Oc5cc3cc(c5O)Oc3ccc(cc3Cl)C2O)NC(=O)C(N)c2ccc(O)c(c2)Oc2cc(O)cc4c2)c2ccc(O)c(c2)-c2c(O)cc(O)cc21 (stereo not drawn) [Compound 20] | 8.7 | 8 (≈ 5.85 µM) | 32 (≈ 23.4 µM) | 64 (≈ 46.8 µM) | 0.6 (≈ 0.439 µM) | 0.25 (≈ 0.183 µM) | 0.063 (≈ 0.0461 µM) | 0.25 (≈ 0.183 µM) | 0.12 (≈ 0.0878 µM) | 0.06 (≈ 0.0439 µM) | > 300 | 0.72 | 6.1 | 8.3 | – |
| NC1C(=O)NC2Cc3ccc(c(Cl)c3)Oc3cc4cc(c3O)Oc3ccc(cc3Cl)C(O)C3NC(=O)C(NC(=O)C4NC(=O)C(NC2=O)c2cc(O)cc(c2)Oc2cc1ccc2O)c1ccc(O)c(c1)-c1c(O)cc(O)cc1C(C(=O)N1CCN(c2ccccn2)CC1)NC3=O (stereo not drawn) [Compound 24] | – | 32 (≈ 23.8 µM) | > 128 | > 128 | 0.06 (≈ 0.0446 µM) | 0.12 (≈ 0.0893 µM) | 0.063 (≈ 0.0469 µM) | 0.12 (≈ 0.0893 µM) | 0.06 (≈ 0.0446 µM) | 0.06 (≈ 0.0446 µM) | > 300 | 0.72 | 5.75 | 7.4 | 6.6 |
| NC1C(=O)NC2Cc3ccc(c(Cl)c3)Oc3cc4cc(c3O)Oc3ccc(cc3Cl)C(O)C3NC(=O)C(NC(=O)C4NC(=O)C(NC2=O)c2cc(O)cc(c2)Oc2cc1ccc2O)c1ccc(O)c(c1)-c1c(O)cc(O)cc1C(C(=O)NCCCCCC(=O)NC1C(O)OC(CO)C(O)C1O)NC3=O (stereo not drawn) [Compound 31] | 7.9 | 64 (≈ 43.4 µM) | > 128 | > 128 | – | 0.5 (≈ 0.339 µM) | 0.063 (≈ 0.0428 µM) | 0.25 (≈ 0.17 µM) | 0.25 (≈ 0.17 µM) | 0.12 (≈ 0.0815 µM) | > 300 | 2.9 | 6.45 | – | – |
